Assays:
[1] = tested on: CD83, CD86 surface markers of predendritic cells (DC-6); assay: dendritic cell differentiation test: CD83, CD86 surface marker expression; type: cell-based, human; conditions: for CD86 % CD / CD86 Fluorescence: 10 μg/ml; for CD86 % CD: products redissolved in pyrogen-free water, % of dendritic cells; for CD86 Fluorescence: mean fluorescence value; for concentration inducing an increase in expression of CD83 and CD86 surface markers: FIGS. 75 & 76
Procedure: The ability of products of the invention to induce maturation of predendritic cells into dendritic cells was assessed. The following parameters were measured: FITC-Dextran conjugate take-up and expression of CD83, CD86 surface markers.
Mononucleated cells of peripheral blood are isolated from buffy coats of healthy donors. Purified monocytes by adherence selection are resuspended in RPMI-1640 medium containing 10% of foetal calf serum (FCS), GM-CSF and IL-4 (10 ng/ml) at a density of 1×10^6 cells/ml. Cells are divided into Petri Dishes (10×10^6 cells per dish) and cultured for 6 days with a change to fresh medium after 3 days. Cells thus obtained are called predendritic cells (DC-6). Maturation of predendritic cells into mature dendritic cells is achieved by incubating cells with diluted solutions of the products or LPS (positive control) for 3 more days (see product section below). At day 9 (DC-9), cells are harvested and analyzed for different indicators of dendritic cell maturation: assessment of CD83, CD86 surface marker expression as well as of their ability to take up FITC-Dextran conjugate. All these parameters are analyzed by an EPICS-XL-MCL model FACS (Coulter Immunology, Hialeah, […]).
Expression of surface markers is given as % of mean fluorescence of LPS-activated cells (positive control); FITC-Dextran conjugate take-up rate is calculated based on take-up of cells maintained in basic medium and is expressed in %.
Solutions are incubated at 37° C. for 20 minutes, subjected to vigorous stirring during 3 minutes and then diluted to 100 μg/ml in RPMI-1640 culture medium and used in diluted state at concentrations ranging from 10 μg/ml to 0.03 μg/ml. Reference Product: E. coli lipopolysaccharide (LPS, DIFCO, Detroit, Mich., U.S.A.), as a 5 mg/ml stock solution in PBS. An intermediate 100 μg/ml solution is prepared in RPMI 1640 culture medium. Concentrations of dilute solutions being tested range from 1 μg/ml to 0.03 μg/ml.
In another series of experiments, all acyl dipeptide-like compounds were freeze-dried and directly redissolved into pyrogen-free water. Different products as well as LPS control are tested at a concentration of 10 μg/ml. Results are given as % of dendritic cells and mean fluorescence value for dextran phagocytosis or CD86 surface marker expression.

[2] = tested on: human peripheral blood mononuclear cells; assay: inhibition of E. coli LPS-induced α TNF production in human peripheral blood mononuclear cells; type: cell-based; conditions: product 10 μg/ml; for 50% inhibition LPS: LPS concentration at which α TNF production is 50% of control; for max. Inhibition LPS: LPS concentration corresponding to maximum inhibition
Procedure: Mononuclear cells of peripheral blood are recovered from buffy coats of 6 healthy donors. Such buffy coat cells are resuspended and mononuclear cells are isolated by centrifugation on a Ficoll-Paque gradient (Amersham Pharmacia). Purified mononuclear cells are resuspended into RPMI-1640 medium supplemented with 10% FCS, antibiotics, mercaptoethanol and L-glutamine. Cell concentration is adjusted to 2×10^6 viable cells/ml.
Product mediated Inhibition is determined by preincubating those products with mononuclear cells, and adding, 1 hour later, serially diluted solutions of LPS capable of inducing α TFN production. […] E. coli LPS is serially diluted (10-fold dilution) to be in the range of 1 to 0.00001 μg/ml
50 μl of 10 μg/ml dilute product solutions in RPMI 1640 medium are dispensed into a microtiter plate. Each assay (10 μg/ml product concentration+dilute E. coli LPS) is run in triplicates and each microtiter plate includes a negative control comprised of plain medium. LPS-induced α TNF production (without inhibitor) is determined by adding E. coli LPS dilutions to RPMI medium.
100 μl of the cell suspension are added to each well containing dilutions of either product or control. Cells are incubated with the products for 1 hour in an incubator at 37° C., under 5% CO2 and a moisture saturated atmosphere.
At the end of the pre-incubation period, 50 μl of serially diluted solutions of E. coli LPS are added. Incubation of mononuclear cells with the product and LPS is extended for 18 hours. At the end of the cell activation period, the microtiter plates are centrifuged, and the supernatants are pooled and frozen at −80° C. as aliquots until time of ELISA assay.
Concentration of αTNF secreted by mononuclear cells is determined by chemiluminescent ELISA (QuantiGlo #QTAOO R&D kit). 4-fold dilutions of supernatant fluid are dispensed into each well of the microtiter plate to which anti-human αTNF antibodies are bound. The microtiter plate is incubated for 4 hours at room temperature. After washing, peroxidase-conjugated anti-human αTNF antibody is added. Following a 2 hour incubation period and a thorough washing, a chemiluminescent substrate is added and chemilunescence is read after 20 minutes. αTNF content in the supernatant fluid is determined with respect to a standard curve covering the 7000 to 0.7 pg/ml range.
Inhibition is characterized by the E. coli LPS concentration which elicits 50% production of α TNF during co-incubation in comparison to a control including only RPMI. This concentration increases as product inhibition activity becomes stronger. Knowing inhibition values of α TNF production, this concentration is given by calculating 100-(αTNF production induced by product and LPS)/(αTNF production induced by LPS alone)*100. From these inhibition data, concentration is determined by linear regression along the line segment which joins 2 LPS dilutions giving approx. 50% inhibition.
Product ability to inhibit α TNF production in mononuclear cells in response to LPS is further characterized by maximum inhibition. […] Results are calculated from a representative experience using all products.

SMILES | CD86 % CD [1] | CD86 Fluorescence [1] | concentration inducing an increase in expression of CD83 and CD86 surface markers [1] | max. Inhibition [2] | 50% inhibition LPS [2] | max. Inhibition LPS [2]
CCCCCCCCCCCC(=O)O[C@H](CCCCCCCCCCC)CC(=O)NC(CCOP(=O)(O)O)C(=O)NCCCC(COC(=O)CCCCC(O)CO)NC(=O)C[C@H](O)CCCCCCCCCCC (stereo partly drawn) [OM-197-FV6, 3-[(R)-dodecanoyloxytetradecanoylamino]-4oxo-5-aza-9-[(R)-3-hydroxytetradecanoylamino]-decan-1,10-diol 1-dihydrogenphate 10-(6,7-dihydroxyheptanoate)] | 62.9% | 4.9 | no effect at all | 100% | >1 µg/mL | 0.014 µg/mL
CCCCCCCCCCCC(=O)O[C@H](CCCCCCCCCCC)CC(=O)N[C@H](CC(=O)N[C@@H](CCCCN)C(=O)O)C(=O)NCCC[C@H](COC(=O)CCCCCN)NC(=O)C[C@H](O)CCCCCCCCCCC [OM-197-Lys-AC] | 93.5% | 6.9 |  | 100% | >1 µg/mL | 0.001 µg/mL
CCCCCCCCCCCC(=O)O[C@H](CCCCCCCCCCC)CC(=O)N[C@H](CC(=O)N[C@@H](CCCCN)C(=O)O)C(=O)NCCC[C@H](CO)NC(=O)C[C@H](O)CCCCCCCCCCC [OM-197-Lys] | 21.2% | 2.1 |  | 100% | 0.70 µg/mL | 0.0055 µg/mL
CCCCCCCCCCCC(=O)O[C@H](CCCCCCCCCCC)CC(=O)N[C@H](CC(=O)O)C(=O)NCCC[C@H](CO)NC(=O)C[C@H](O)CCCCCCCCCCC [OM-197-MC, N—[(R)-3-dodecanoyloxytetradecanoyl]-D-aspartic acid, α-N-{(4R)-5-hydroxy-4[(R)-3-hydroxytetradecanoylamino]-pentyl}amide] |  |  | at least 1 μg/ml | 100% | 1 µg/mL | 0.0043 µg/mL
CCCCCCCCCCCC(=O)O[C@H](CCCCCCCCCCC)CC(=O)N[C@H](CC(=O)O)C(=O)NCCC[C@H](COC(=O)CCCCCN)NC(=O)C[C@H](O)CCCCCCCCCCC [OM-197-MC-AC, N—[(R)-3-dodecanoyloxytetradecanoyl]-D-aspartic acid, α-N-{(4R)-5-(6-aminohexanoyloxy)-4-[(R)-3-hydroxytetradecanoylamino]pentyl}amide] | 67.4% | 5.2 |  | 100% | 0.88 µg/mL | 0.00003 µg/mL
CCCCCCCCCCCC(=O)O[C@H](CCCCCCCCCCC)CC(=O)N[C@H](CC(=O)O)C(=O)NCCC[C@H](COC(=O)CCCCCNC(=O)CCC(=O)OC[C@H]1O[C@@H](n2cc(C)c(=O)[nH]c2=O)C[C@@H]1N=[N+]=[N-])NC(=O)C[C@H](O)CCCCCCCCCCC [OM-197-MC-AC-Succ-AZT] | 81.4% | 6.1 |  | 100% | 0.45 µg/mL | 0.0005 µg/mL
CCCCCCCCCCCC(=O)O[C@H](CCCCCCCCCCC)CC(=O)N[C@H](CC(=O)O)C(=O)NCCC[C@H](COC(=O)CCCCCNC(=O)CCC(=O)OC[C@@H]1C=C[C@H](n2cc(C)c(=O)[nH]c2=O)O1)NC(=O)C[C@H](O)CCCCCCCCCCC [OM-197-MC-AC-Succ-d4T] | 25.9% | 2.4 |  | 100% | 0.64 µg/mL | 0.00016 µg/mL
CCCCCCCCCCCC(=O)O[C@H](CCCCCCCCCCC)CC(=O)N[C@H](CC(=O)O)C(=O)NCCC[C@H](COC(=O)CCCCC(O)CO)NC(=O)C[C@H](O)CCCCCCCCCCC (stereo partly drawn) [OM-197-MC-FV5, N—[(R)-3-dodecanoyloxytetradecanoylamino]-D-aspartic acid, α-N-{(4R)-5-hydroxy-4-[(R)-3-hydroxytetra-decanoylamino]-pentyl}amide 5-O-(6,7-dihydroxyheptanoate)] | 74.5% | 5.6 |  | 100% | >1 µg/mL | 0.016 µg/mL
CCCCCCCCCCCC(=O)O[C@H](CCCCCCCCCCC)CC(=O)N[C@H](CC(=O)O)C(=O)NCCC[C@H](COC(=O)CCC(=O)O)NC(=O)C[C@H](O)CCCCCCCCCCC [OM-197-MC-Succ] | 34.9% | 3.0 |  | 100% | 1 µg/mL | 0.018 µg/mL

Source: patent publication US8173133B2, “Acyl pseudodipeptides which carry a functionalized auxiliary arm” (OM Pharma, priority 1999, dated 2012)
